Data from BigSolDB 2.1.

COC(=O)Nc1nc2ccc(C(=O)c3ccc(F)cc3)cc2[nH]1
Settings | solubility (mole fraction)
in 1,4-dioxane, 288.15 K | 8.29e-05
in 1,4-dioxane, 293.15 K | 9.83e-05
in 1,4-dioxane, 298.15 K | 0.00012
in 1,4-dioxane, 303.15 K | 0.00014
in 1,4-dioxane, 308.15 K | 0.000168
in 1,4-dioxane, 313.15 K | 0.000195
in 1,4-dioxane, 318.15 K | 0.000229
in 1,4-dioxane, 323.15 K | 0.000266
in 1,4-dioxane, 328.15 K | 0.000308
in 1,4-dioxane, 333.15 K | 0.000357
in 2-butanone, 283.15 K | 0.000232
in 2-butanone, 288.15 K | 0.000305
in 2-butanone, 293.15 K | 0.000401
in 2-butanone, 298.15 K | 0.000516
in 2-butanone, 303.15 K | 0.000682
in 2-butanone, 308.15 K | 0.000837
in 2-butanone, 313.15 K | 0.00104
in 2-butanone, 318.15 K | 0.00132
in 2-butanone, 323.15 K | 0.0017
in 2-butanone, 328.15 K | 0.00204
in 2-butanone, 333.15 K | 0.00248
in DMF, 283.15 K | 0.000572
in DMF, 288.15 K | 0.000708
in DMF, 293.15 K | 0.000821
in DMF, 298.15 K | 0.00098
in DMF, 303.15 K | 0.00116
in DMF, 308.15 K | 0.00138
in DMF, 313.15 K | 0.00162
in DMF, 318.15 K | 0.00188
in DMF, 323.15 K | 0.0022
in DMF, 328.15 K | 0.00259
in DMF, 333.15 K | 0.00309
in DMSO, 293.15 K | 0.00191
in DMSO, 298.15 K | 0.00221
in DMSO, 303.15 K | 0.00261
in DMSO, 308.15 K | 0.00303
in DMSO, 313.15 K | 0.00358
in DMSO, 318.15 K | 0.00419
in DMSO, 323.15 K | 0.00481
in DMSO, 328.15 K | 0.00548
in DMSO, 333.15 K | 0.00627
in NMP, 283.15 K | 0.00078
in NMP, 288.15 K | 0.000918
in NMP, 293.15 K | 0.00103
in NMP, 298.15 K | 0.00122
in NMP, 303.15 K | 0.00142
in NMP, 308.15 K | 0.00162
in NMP, 313.15 K | 0.00188
in NMP, 318.15 K | 0.00215
in NMP, 323.15 K | 0.00252
in NMP, 328.15 K | 0.00308
in NMP, 333.15 K | 0.00373
in ethanol, 283.15 K | 1.03e-06
in ethanol, 288.15 K | 1.56e-06
in ethanol, 293.15 K | 2.41e-06
in ethanol, 298.15 K | 3.74e-06
in ethanol, 303.15 K | 5.44e-06
in ethanol, 308.15 K | 7.73e-06
in ethanol, 313.15 K | 1.01e-05
in ethanol, 318.15 K | 1.41e-05
in ethanol, 323.15 K | 1.94e-05
in ethanol, 328.15 K | 2.55e-05
in ethanol, 333.15 K | 3.33e-05
in isobutanol, 283.15 K | 1.2e-05
in isobutanol, 288.15 K | 1.62e-05
in isobutanol, 293.15 K | 2.13e-05
in isobutanol, 298.15 K | 2.73e-05
in isobutanol, 303.15 K | 3.55e-05
in isobutanol, 308.15 K | 4.61e-05
in isobutanol, 313.15 K | 5.88e-05
in isobutanol, 318.15 K | 7.44e-05
in isobutanol, 323.15 K | 9.39e-05
in isobutanol, 328.15 K | 0.000116
in isobutanol, 333.15 K | 0.000135
in isopropanol, 283.15 K | 6.58e-06
in isopropanol, 288.15 K | 7.97e-06
in isopropanol, 293.15 K | 9.58e-06
in isopropanol, 298.15 K | 1.14e-05
in isopropanol, 303.15 K | 1.34e-05
in isopropanol, 308.15 K | 1.63e-05
in isopropanol, 313.15 K | 1.93e-05
in isopropanol, 318.15 K | 2.22e-05
in isopropanol, 323.15 K | 2.65e-05
in isopropanol, 328.15 K | 3.12e-05
in isopropanol, 333.15 K | 3.56e-05
in methanol, 283.15 K | 7.08e-07
in methanol, 288.15 K | 1.05e-06
in methanol, 293.15 K | 1.57e-06
in methanol, 298.15 K | 2.25e-06
in methanol, 303.15 K | 3.15e-06
in methanol, 308.15 K | 4.41e-06
in methanol, 313.15 K | 6.31e-06
in methanol, 318.15 K | 8.49e-06
in methanol, 323.15 K | 1.17e-05
in methanol, 328.15 K | 1.59e-05
in methanol, 333.15 K | 2.14e-05
in n-butanol, 283.15 K | 1.93e-05
in n-butanol, 288.15 K | 2.58e-05
in n-butanol, 293.15 K | 3.46e-05
in n-butanol, 298.15 K | 4.36e-05
in n-butanol, 303.15 K | 5.64e-05
in n-butanol, 308.15 K | 7.1e-05
in n-butanol, 313.15 K | 8.77e-05
in n-butanol, 318.15 K | 0.000111
in n-butanol, 323.15 K | 0.000141
in n-butanol, 328.15 K | 0.000173
in n-butanol, 333.15 K | 0.000218
in n-propanol, 283.15 K | 7.7e-06
in n-propanol, 288.15 K | 1e-05
in n-propanol, 293.15 K | 1.32e-05
in n-propanol, 298.15 K | 1.69e-05
in n-propanol, 303.15 K | 2.16e-05
in n-propanol, 308.15 K | 2.64e-05
in n-propanol, 313.15 K | 3.39e-05
in n-propanol, 318.15 K | 4.31e-05
in n-propanol, 323.15 K | 5.53e-05
in n-propanol, 328.15 K | 6.78e-05
in n-propanol, 333.15 K | 8.09e-05
in water, 283.15 K | 1.03e-07
in water, 288.15 K | 1.31e-07
in water, 293.15 K | 1.67e-07
in water, 298.15 K | 2.12e-07
in water, 303.15 K | 2.6e-07
in water, 308.15 K | 3.23e-07
in water, 313.15 K | 4e-07
in water, 318.15 K | 4.96e-07
in water, 323.15 K | 6.07e-07
in water, 328.15 K | 7.33e-07
in water, 333.15 K | 8.81e-07
